Results taken from patent US11098077B2, “Locked nucleic acid cyclic dinucleotide compounds and uses thereof” (CHINOOK THERAPEUTICS, INC., priority 2016, dated 2021).
pEC50: −log10 of the molar value.

Experiments:
[1] = molecular target: T1, hSTING REF allele (Homo sapiens, UniProt Q86WV6); test: Differential scanning fluorometry (DSF) binding to purified STING AA140-379, REF allele; conditions: for hSTING Tm Shift REF: DSF, ligand 1 mM, 1 mg/ml STING AA140-379; for Tm shift compared with 2′3′-RR-(A)(A) and 2′3′-(G)(A): for the REF allele
T1 construct: DNA encoding amino acids 140-379 (amino acid numbering corresponding to Swiss Prot Q86WV6); 6xHIS (N, cleaved yes); SUMO (N, cleaved yes); made in house; host or cells: Rosetta2 (DE3) E. coli
Experimental: (§1) Cells were grown in lysogeny broth at 37° C. until a […] absorbance of 0.6 was reached. […] Cell pellets were re-suspended on ice in a buffer containing 50 mM Tris hydrochloride (Tris-HCl) pH 7.5, 500 mM sodium chloride (NaCl), 20 mM imidazole, 10% glycerol, 1 mM tris(2-carboxyethyl)phosphine hydrochloride (TCEP) and protease inhibitor tablet (Pierce) (Buffer A). Cells were lysed using an S-450D sonifier (Emmerson industrial) on ice. […] Protein was aliquoted, flash frozen in liquid nitrogen and stored at −80° C. until use.
(§2) The protein is heated in the presence of a dye that binds to and fluoresces in hydrophobic environments. The protein is thermally denatured by heating resulting in increased dye binding to the unfolded protein and fluorescence. The temperature midpoint (Tm) of a proteins denaturation is established by calculating the half maximal value of the denaturation curve. The temperature midpoint of the protein in the presence of a ligand is directly related to the affinity of the ligand for the protein and therefore its ability to stabilize the protein at higher temperatures.
(§3) Each of wild type hSTING, HAQ allele hSTING and REF allele hSTING were used with each of the reference compounds and compounds of the invention as listed in Table 4. Samples were placed in hard shell PCR plate (Bio-Rad). The fluorescence as a function of temperature was recorded in a CFX 96 real time PCR machine (Bio-Rad) reading on the HEX channel, excitation 450-490, emission 560-580 nm. The temperature gradient was from 15-80° C. ramping 0.5° C. per 15 seconds and recording every 0.5° C. After subtraction of the background signal from a sample lacking protein and ligand. The midpoint temperature (Tm) was calculated by fitting the curves of the fluorescence as a function of temperature to a Boltzmann sigmoidal function (Graph Pad Prism).

[2] = molecular target: T2, hSTING HAQ allele in THP1-Dual cells (Homo sapiens, UniProt Q86WV6, G230A/H232R/R293Q/R71H); test: THP1-Dual IRF-3 inducible secreted luciferase reporter assay (type I interferon activation), without digitonin; assay type: cell-based
T2 construct: a human monocyte cell line containing the hSTING HAQ allele; host or cells: THP1-Dual cells
Experimental: After 30 minutes, cells were washed and fresh RPMI media containing 10% FBS was added, and cells were incubated at 37° C. with 5% CO2 Cell culture supernatants from each sample were collected after overnight incubation, and 10 μL of the cell culture supernatants was added to 50 μL QUANTI-Luc reagent (Invivogen). Type I interferon activation was determined by measuring secreted luciferase levels on a SpectraMax M3 spectrophotometer (Molecular Devices).

[3] = molecular target: T3, hSTING WT (Homo sapiens, UniProt Q86WV6, H232R); test: Differential scanning fluorometry (DSF) binding to purified STING AA140-379, wild type; conditions: for hSTING Tm Shift WT: DSF, ligand 1 mM, 1 mg/ml STING AA140-379; for Tm shift compared with natural ligand 2′3′-(G)(A) / Tm shift compared with reference compound 2′3′-RR-(A)(A): for all three alleles (WT, HAQ, REF)
T3 construct: DNA encoding amino acids 140-379 (amino acid numbering corresponding to Swiss Prot Q86WV6); 6xHIS (N, cleaved yes); SUMO (N, cleaved yes); made in house; host or cells: Rosetta2 (DE3) E. coli
Experimental: as §1, §2, §3

[4] = molecular target: T4, hSTING HAQ allele (Homo sapiens, UniProt Q86WV6, G230A/H232R/R293Q); test: Differential scanning fluorometry (DSF) binding to purified STING AA140-379, HAQ allele; conditions: ligand 1 mM, 1 mg/ml STING AA140-379
T4 construct: DNA encoding amino acids 140-379 (amino acid numbering corresponding to Swiss Prot Q86WV6); 6xHIS (N, cleaved yes); SUMO (N, cleaved yes); made in house; host or cells: Rosetta2 (DE3) E. coli
Experimental: as §1, §2, §3

[5] = test system: serum TNF-α, IFN-γ, IL-6, MCP-1; test: Systemic serum pro-inflammatory cytokines by Mouse Inflammation Cytometric Bead Array; conditions: from serum cytokines six hours post-IT injection
Experimental: (§5) To assess the ability of the LNA-CDN molecules to promote anti-tumor immunity in aggressive murine tumor models, 6-8 week old female C57BL/6 mice (8 mice per group) were implanted with B16.SIY melanoma tumor cells (1×10^6 cells in 100 μL PBS). […] Treatments began when tumors reached a volume of approximately 100 mm^3, on day 9 post tumor implantation. The compounds were administered by a single subcutaneous injection into the center of the tumor (IT) using a 27 gauge needle. Tumors were measured twice weekly.

[6] = test system: B16.SIY melanoma tumor cells; test: B16.SIY melanoma tumor model, intra-tumoral injection (Example 13); assay type: in vivo, C57BL/6 mice; conditions: for tumor efficacy compared to reference compound 2′3′-RR-(A)(A): 1 μg dose; for tumor inhibition (tumor volume) compared to HBSS: single IT injection, 0.1, 1, 10 and 100 μg
Experimental: (§4) Tumors were measured twice weekly.

[7] = test system: SIY-specific T cells in splenocytes; test: IFNγ ELISPOT of splenocytes stimulated with SIY peptide; assay type: in vivo, C57BL/6 mice; conditions: day 7 post IT injection; for IFNγ ELISPOT T cell responses compared to reference compound 2′3′-RR-(A)(A): 1 μg dose
[8] = test system: serum TNF-α, IFN-γ, IL-6, MCP-1; conditions: mouse, in vivo
Experimental: as §5

[9] = test system: SIY-specific CD8+ T cells in splenocytes; test: FACS of splenocytes with SIY pentamer (SIY+ CD8+ T cells); assay type: in vivo, C57BL/6 mice; conditions: day 7 post IT injection
Experimental: as §4
Data analysis was conducted with FlowJo software (Tree Star).

[10] = test system: B16.SIY melanoma cells; test: B16.SIY melanoma tumor model in STING-deficient Goldenticket mice (Example 14); assay type: in vivo; conditions: STING-deficient GT mice; single IT injection, 100 μg
Experimental: as §4

[11] = test system: B16.SIY melanoma cells; test: B16.SIY melanoma tumor model in WT mice (Example 14); assay type: in vivo, C57BL/6 (WT) mice; conditions: single IT injection, 100 μg
Experimental: as §4

T1 sequence (Q86WV6 140-379): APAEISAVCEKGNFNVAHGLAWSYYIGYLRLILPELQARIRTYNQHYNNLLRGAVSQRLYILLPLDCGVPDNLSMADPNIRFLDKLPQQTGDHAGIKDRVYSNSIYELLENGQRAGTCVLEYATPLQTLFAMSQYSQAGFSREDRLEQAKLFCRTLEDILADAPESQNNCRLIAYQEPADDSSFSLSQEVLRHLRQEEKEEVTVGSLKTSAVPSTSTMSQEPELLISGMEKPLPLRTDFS
T2 sequence (Q86WV6 whole entry R71H/G230A/H232R/R293Q): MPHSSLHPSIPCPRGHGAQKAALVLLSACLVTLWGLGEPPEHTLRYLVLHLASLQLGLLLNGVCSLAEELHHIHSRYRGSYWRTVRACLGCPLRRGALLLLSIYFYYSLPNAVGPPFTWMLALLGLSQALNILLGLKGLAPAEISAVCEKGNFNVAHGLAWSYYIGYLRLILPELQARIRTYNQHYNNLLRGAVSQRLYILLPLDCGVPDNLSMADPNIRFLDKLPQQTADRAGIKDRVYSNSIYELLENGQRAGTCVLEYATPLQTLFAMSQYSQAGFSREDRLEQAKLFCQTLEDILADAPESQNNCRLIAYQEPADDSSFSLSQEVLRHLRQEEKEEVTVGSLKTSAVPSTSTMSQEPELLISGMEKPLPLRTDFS
T3 sequence (Q86WV6 140-379 H232R limits assumed): as the sequence (Q86WV6 140-379) above, with H93R counted along it
T4 sequence (Q86WV6 140-379 G230A/H232R/R293Q limits assumed): as the sequence (Q86WV6 140-379) above, with G91A, H93R, R154Q counted along it

SMILES	hSTING Tm Shift REF [1]	pEC50 [2]	hSTING Tm Shift WT [3]	hSTING Tm Shift HAQ [4]	other results
Nc1ncnc2c1ncn2[C@@H]1O[C@@]23CO[C@@H]1[C@@H]2O[P@](=O)(S)OC[C@@]12CO[C@@H]([C@H](n4cnc5c(N)ncnc54)O1)[C@@H]2O[P@](=O)(S)OC3 [Compound 5a]	10.6 °C	4.38	16.8 °C	27.6 °C	Tm shift compared with 2′3′-RR-(A)(A) and 2′3′-(G)(A) [1]: greater Tm shift than both 2′3′-RR-(A)(A) and 2′3′-(G)(A); safety profile compared to reference compound 2′3′-RR-(A)(A) [5]: comparable safety profile; Tm shift compared with natural ligand 2′3′-(G)(A) [3]: greater Tm shift than the natural ligand 2′3′-(G)(A); Tm shift compared with reference compound 2′3′-RR-(A)(A) [3]: comparable to or greater than that of the reference compound 2′3′-RR-(A)(A); tumor efficacy compared to reference compound 2′3′-RR-(A)(A) ([6]; single IT injection): comparable tumor efficacy as compared to the reference compound 2′3′-RR-(A)(A); tumor regression ([6]; single IT injection, 100 μg dose): complete tumor regression; tumor inhibition (tumor volume) compared to HBSS [6]: potent tumor inhibition as compared to HBSS, in a dose-dependent manner; IFNγ ELISPOT T cell responses compared to reference compound 2′3′-RR-(A)(A) [7]: comparable T cell responses; T cell production of IFNγ in response to SIY peptide stimulation, compared to HBSS ([7]; 0.1, 1 and 10 μg doses): significantly higher T cell production of IFNγ
Nc1ncnc2c1ncn2[C@@H]1O[C@@H]2CO[P@](=O)(S)O[C@H]3[C@H]4OC[C@]3(CO[P@](=O)(S)O[C@@H]1[C@@H]2O)O[C@H]4n1cnc2c(N)ncnc21 [Compound 10d, dithio-(Sp,Sp)-cyclic-[A(2′,5′)p-2′O,4′-C-LNA-A(3′,5′)p]]	3.2 °C	< 3.82	4.1 °C	5.0 °C	
Nc1ncnc2c1ncn2[C@@H]1O[C@@H]2CO[P@@](=O)(S)O[C@H]3[C@H]4OC[C@]3(CO[P@](=O)(S)O[C@@H]1[C@@H]2O)O[C@H]4n1cnc2c(N)ncnc21 [Compound 10c]	5.0 °C	< 3.82	6.5 °C	10.4 °C	safety profile compared to reference compound 2′3′-RR-(A)(A) [5]: superior safety profile; systemic cytokines compared with 2′3′-RR-(A)(A) [8]: significantly lower systemic cytokines than 2′3′-RR-(A)(A); tumor efficacy compared to reference compound 2′3′-RR-(A)(A) ([6]; single IT injection): comparable tumor efficacy as compared to the reference compound 2′3′-RR-(A)(A); tumor inhibition (tumor volume) compared to HBSS [6]: potent tumor inhibition as compared to HBSS, in a dose-dependent manner; range of dose responses (therapeutic window for anti-tumor immunity) [9]: a broader range of dose responses; IFNγ ELISPOT T cell responses compared to reference compound 2′3′-RR-(A)(A) [7]: comparable responses; IFNγ ELISPOT responses compared to HBSS ([7]; all doses tested (0.1, 1, 10, 100 μg)): significantly higher responses; range of efficacy (doses giving IFNγ ELISPOT response) [7]: an even broader range of efficacy than Compound 5a
Nc1ncnc2c1ncn2[C@@H]1O[C@@H]2CO[P@](=O)(S)O[C@H]3[C@H]4OC[C@]3(CO[P@](=O)(S)O[C@@H]1[C@H]2F)O[C@H]4n1cnc2c(N)ncnc21 [Compound 37d, dithio-(SP,SP)-cyclic-[3′βF-A(2′,5′)p-2′O,4′C-LNA-A(3′,5′)p]]	−0.3 °C	< 3.82	−0.3 °C	2.4 °C	
Nc1ncnc2c1ncn2[C@@H]1O[C@@H]2CO[P@@](=O)(S)O[C@H]3[C@H]4OC[C@]3(CO[P@](=O)(S)O[C@@H]1[C@H]2F)O[C@H]4n1cnc2c(N)ncnc21 [Compound 37c, dithio-(Sp,Rp)-cyclic-[3′βF-A(2′,5′)p-2′O,4′C-LNA-A(3′,5′)p]]	0.8 °C	< 3.82	1.2 °C	5.7 °C	
Nc1nc2c(ncn2[C@@H]2O[C@@H]3CO[P@@](=O)(S)O[C@H]4[C@H]5OC[C@]4(CO[P@](=O)(S)O[C@@H]2[C@@H]3F)O[C@H]5n2cnc3c(N)ncnc32)c(=O)[nH]1 [Compound 15c, 2′3′-SR-(3′F-G)(2′O,4′C-LNA-A)]					anti-tumor effect (tumor volume) [10]: no anti-tumor effect; tumor rejection (tumor volume) compared to HBSS [11]: complete tumor rejection

Further compounds by rising pEC50 [2], results first:

hSTING Tm Shift REF [1]	pEC50 [2]	hSTING Tm Shift WT [3]	hSTING Tm Shift HAQ [4]	SMILES	other results
4.4 °C	3.47	4.3 °C	5.6 °C	O=C(Nc1ncnc2c1ncn2[C@@H]1O[C@@]23CO[C@@H]1[C@@H]2O[P@](=O)(S)OC[C@@]12CO[C@@H]([C@H](n4cnc5c(NC(=O)c6ccccc6)ncnc54)O1)[C@@H]2O[P@](=O)(S)OC3)c1ccccc1 [Compound 4a]	
7.4 °C	3.96	8.7 °C	13.9 °C	Nc1ncnc2c1ncn2[C@@H]1O[C@@H]2CO[P@](=O)(S)O[C@H]3[C@H]4OC[C@]3(CO[P@@](=O)(S)O[C@@H]1[C@@H]2O)O[C@H]4n1cnc2c(N)ncnc21 [Compound 10b, dithio-(Rp,Sp)-cyclic-[A(2′,5′)p-2′O,4′C-LNA-A(3′,5′)p]]	
6.2 °C	4.57	9.5 °C	16.2 °C	Nc1ncnc2c1ncn2[C@@H]1O[C@@]23CO[C@@H]1[C@@H]2O[P@](=O)(S)OC[C@@H]1C[C@@H](O[P@](=O)(S)OC3)[C@H](n2cnc3c(N)ncnc32)O1 [Compound 21a, dithio-(Rp,Rp)-cyclic-[3′H-A(2′,5′)p-2′O,4′C-LNA-A(3′,5′)p]]	
7.5 °C	4.61	10.4 °C	16.1 °C	Nc1ncnc2c1ncn2[C@@H]1O[C@@H]2CO[P@@](=O)(S)O[C@H]3[C@H]4OC[C@]3(CO[P@@](=O)(S)O[C@@H]1[C@@H]2O)O[C@H]4n1cnc2c(N)ncnc21 [Compound 10a, dithio-(Rp,Rp)-cyclic-[A(2′,5′)p-2′O,4′C-LNA-A(3′,5′)p]]	
8.7 °C	4.71	11.3 °C	18.3 °C	Nc1ncnc2c1ncn2[C@@H]1O[C@@]23CO[C@@H]1[C@@H]2O[P@@](=O)(S)OC[C@@]12CO[C@@H]([C@H](n4cnc5c(N)ncnc54)O1)[C@@H]2O[P@](=O)(S)OC3 [Compound 5b]	Tm shift compared with 2′3′-RR-(A)(A) and 2′3′-(G)(A) [1]: greater Tm shift than both 2′3′-RR-(A)(A) and 2′3′-(G)(A); Tm shift compared with reference compound 2′3′-RR-(A)(A) [3]: comparable to or greater than that of the reference compound 2′3′-RR-(A)(A)
13.1 °C	5.24	20.3 °C	34.0 °C	Nc1nc2c(ncn2[C@@H]2O[C@@H]3CO[P@@](=O)(S)O[C@H]4[C@H]5OC[C@]4(CO[P@@](=O)(S)O[C@H]3[C@H]2O)O[C@H]5n2cnc3c(N)ncnc32)c(=O)[nH]1 [Compound 45a, 2-amino-9-((2R,3R,3aS,5R,7aR,9R,10R,10aS,12R,14aR)-2-(6-amino-9H-purin-9-yl)-10-hydroxy-5,12-dimercapto-5,12-dioxidohexahydro-2H,7H,14H-3,14a-(epoxymethano)difuro[3,2-d:3′,2′-j][1,3,7,9]tetraoxa[2,8]diphosphacyclododecin-9-yl)-1,9-dihydro-6H-purin-6-one]	Tm shift compared with 2′3′-RR-(A)(A) and 2′3′-(G)(A) [1]: greater Tm shift than both 2′3′-RR-(A)(A) and 2′3′-(G)(A); Tm shift compared with natural ligand 2′3′-(G)(A) [3]: greater Tm shift than the natural ligand 2′3′-(G)(A); Tm shift compared with reference compound 2′3′-RR-(A)(A) [3]: comparable to or greater than that of the reference compound 2′3′-RR-(A)(A)
